Earlier results on two compounds are cited in patent US20030170847A1, “Genes involved in isoprenoid compound production” (priority 2001, published 2003).

Molecules are shown by their SMILES.

The subject of data set [1] is nonphotosynthetic bacterial CrtY-type of lycopene cyclases. Particulars: Cunningham et al., The Plant Cell 1994.
Data set [2] concerns CrtL-type of lycopene cyclases. To be noted: Cunningham et al., The Plant Cell 1994.

For `CCN(CC)CCOc1ccc(C)cc1.Cl` [MPTA, 2-(4-methylphenoxy)-triethylamine hydrochloride], the “inhibition of CrtY-type of lycopene cyclases” value in data set [1] was “not”. In data set [2], the “inhibition of CrtL-type of lycopene cyclases” value is “specifically inhibit”.
Take `CCN(CC)CCSc1ccc(Cl)cc1.Cl` [CPTA, 2-(4-chlorophenylthio)-triethylamine hydrochloride]: the “inhibition of CrtY-type of lycopene cyclases” value in data set [1] is recorded as “not”. For the same compound, in data set [2], the “inhibition of CrtL-type of lycopene cyclases” value is reported as “specifically inhibit”.
